Reference: patent US20240315992A1, “AMINOXY ACID-BASED ANTIBACTERIAL COMPOUNDS AND METHODS THEREOF” (The University of Hong Kong, priority 2023, published 2024)
In brackets after ≈: the same amount, converted by molar mass.

Legend:
Assay type in all cases: cell-based
MSSA ATCC 35556 = assay: MIC by CLSI broth micro-dilution, MSSA ATCC 35556; conditions: Staphylococcus aureus, read-out: Minimum inhibitory concentration
Protocol: (§1) Aminoxy acids were synthesized by the standard peptide coupling procedures. Minimum inhibitory concentration was determined using CLSI broth micro-dilution method in 96-wells microtitre plates. Minimum inhibitory concentration is defined as the lowest concentration of the compound that inhibits visible growth of the bacteria. All experiments were performed three times. 24 compounds including aminoxy acid monomers and dipeptides have been identified to show toxicity against multidrug resistant Staphylococcus aureus Mu3 and summarized in Table 1. The minimum inhibitory concentration of compound 8 and compound 35 on other gram-positive bacteria was also evaluated and summarized in Table 2. […] As shown in FIGS. 3A-3B there are no observable hemolysis for compound 8 and compound 35 towards human red blood cell.
(§2) Bacteria were streaked from the glycerol stock into BHI agar and were incubated overnight. Single colony was picked for the overnight culture in cation-adjusted Mueller Hinton broth (CAMH), LB or BHI. The overnight culture was sub-cultured and regrew to exponential phase for the experiment.
(§3) MIC was determined by CLSI broth micro-dilution method in 96-wells microtitre plates. […] Optical density was recorded by DTX 880 multimode detector (Beckman Coulter, California, US). […]

MSSA ATCC 6538 = assay: MIC by CLSI broth micro-dilution, MSSA ATCC 6538; conditions: Staphylococcus aureus, read-out: Minimum inhibitory concentration
Protocol: as §1, §2, §3

MRSA-USA300LAC = assay: MIC by CLSI broth micro-dilution, MRSA-USA300LAC; conditions: Staphylococcus aureus, read-out: Minimum inhibitory concentration
Protocol: as §1, §2, §3

[1] = system: E. faecalis clinical strain; assay: MIC by CLSI broth micro-dilution, E. faecalis; conditions: Enterococcus faecalis, BHI medium, read-out: Minimum inhibitory concentration
Protocol: as §1, §2, §3

MDCK = assay: Mammalian cell cytotoxicity assay (MTT), MDCK; conditions: at 16 folded MIC (50 μM compound 8, 12.5 μM compound 35)
Protocol: FIGS. 2A-2B are the bar graphs showing the cytotoxicity of compound 8 (FIG. 2A) and compound 35 (FIG. 2B) towards mammalian cell NIH3T3, MDCK and MIHA. % survival is mean±S.D normalized to DMSO as the negative control of a representative experiment. Biological triplicates were conducted.
In the treated culture dish, cells were washed by PBS and then trypsinized. DMEM was added to quench the reaction. Cells were centrifuged and resuspended into fresh DMEM. Cells were then seeded in 96-well microtitre plate (100 μL, 5000 cells per well) for 24 hours before addition of compounds. The compounds were two-fold serial diluted by DMSO in a DMSO-compatible 96-well plate. 1 μL of compound in DMSO is transferred into the 96-well microtitre preparation plate containing 100 μL DMEM medium. The medium in culture plate was removed and compounds in preparation plate were transferred to culture plate. Equal volume of DMSO was used as negative control.
After 24 hours of incubation of cells, cell viability was measured by MTT assay. In MTT assay, 20 μL 5 mg/mL MTT solution in PBS was added to cell medium and cultured for 3 hours. The medium was then removed and 50 μL DMSO was added and cultured for 10 minutes. Absorbance at 595 nm was measured spectrophotometrically (Beckman Coulter DTX 880 Multimode Detector) and normalized to DMSO group. Biological replicates were performed.

[2] = system: pre-established Staphylococcus aureus ATCC 35556 biofilm; assay: Reduction of established biofilm (crystal violet); conditions: 24 hours pre-established biofilm treated 24 hours, concentration dependent
Protocol: 24 hours pre-established Staphylococcus. aureus ATCC 35556 biofilm was treated with various concentrations of compound 8, compound 35 or 1% DMSO as negative control for 24 hours. Biofilm was quantified using crystal violet. The data were normalized to DMSO (100% biofilm) and represent average values±S.D. (n=9 per group). Statistical analysis was performed by ANOVA with Dunnett's post-test to calculate p-values adjusted for multiple comparisons with DMSO as control condition (*p<0.05; **p<0.01; ***p<0.001).
Briefly, overnight cultures of Staphylococcus aureus ATCC 35556 in TSB were diluted 1:100 and regrow for 2.5 hours at 37° C., 250 rpm. The bacteria were diluted 1:100 into fresh TSB and 200 μL bacteria in TSB was added to each well of a flat-bottom 96-well plate (200 μL/well). The plate was incubated at 37° C. for 24 hours to establish biofilms. After 24 hours, the supernatant was removed and washed by PBS (200 μL) 2 times. Premixed solution of TSB and compound was prepared in a separate 96-well-plate (200 μL/well; two-folded serial dilutions; final DMSO concentration of maximum 1%). 200 μL compound in TSB was transferred to the plates with established biofilms. […] Following a 1:4 dilution step (33% acetic acid), the optical density was measured at 595 nm by Beckman Coulter DTX 880 Multimode Detector. […]

Row | SMILES | MIC (MSSA ATCC 35556) [µM] | MIC (MSSA ATCC 6538) [µM] | MIC (MRSA-USA300LAC) [µM] | MIC [1] [µM] | toxicity against mammalian cell MDCK (MDCK) | established Staphylococcus aureus biofilm [2]
1 | CC(C)C[C@H](ONC(=O)[C@@H](COCc1ccccc1)ONC(=O)c1cc(C(F)(F)F)cc(C(F)(F)F)c1)C(=O)Nc1ccccc1 [Compound 8] | 3.13 (≈ 2.05 µg/mL) | 3.13 (≈ 2.05 µg/mL) | 3.13 (≈ 2.05 µg/mL) | 3.13 (≈ 2.05 µg/mL) | minimal toxicity | significantly reduced
2 | CC(C)C[C@H](ONC(=O)[C@@H](COCc1ccccc1)ONC(=O)c1cc(C(F)(F)F)cc(C(F)(F)F)c1)C(=O)Nc1ccc2c(c1)OC(F)(F)O2 [Compound 35] | 0.78 (≈ 0.574 µg/mL) | 1.56 (≈ 1.15 µg/mL) | 1.56 (≈ 1.15 µg/mL) | 6.25 (≈ 4.6 µg/mL) | minimal toxicity | significantly reduced
